Measured values: PubChem BioAssay (NCI)
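A five-concentration, 48-hour dose response in 96-well plates underlies each endpoint, interpolated linearly between surrounding concentrations. GI50 is the concentration that inhibits growth by half. TGI: total growth inhibition.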

What was measured:
Test in all cases: inhibition of tumour cell growth, NCI panel, 48 h
HOP-62 NSCLC = tested on: HOP-62 NSCLC
SF-268 CNS = tested on: SF-268 CNS
RXF 393 renal = tested on: RXF 393 renal
PC-3 prostate = tested on: PC-3 prostate
NCI-H522 lung = tested on: NCI-H522 lung
SF-295 CNS = tested on: SF-295 CNS
EKVX NSCLC = tested on: EKVX NSCLC
MOLT-4 leukemia = tested on: MOLT-4 leukemia
BT-549 breast = tested on: BT-549 breast
NCI-H226 lung = tested on: NCI-H226 lung
A549 NSCLC = tested on: A549 NSCLC
HCC-2998 colon = tested on: HCC-2998 colon
NCI-H460 lung = tested on: NCI-H460 lung
RPMI-8226 leukemia = tested on: RPMI-8226 leukemia
T-47D breast = tested on: T-47D breast
A498 renal = tested on: A498 renal
UACC-257 melanoma = tested on: UACC-257 melanoma
HCT-116 colon = tested on: HCT-116 colon
SK-MEL-28 melanoma = tested on: SK-MEL-28 melanoma
SR leukemia = tested on: SR leukemia
OVCAR-5 ovarian = tested on: OVCAR-5 ovarian
MDA-MB-435 = tested on: MDA-MB-435
ACHN renal = tested on: ACHN renal
MCF7 breast = tested on: MCF7 breast
SN12C renal = tested on: SN12C renal
DU-145 prostate = tested on: DU-145 prostate
COLO 205 colon = tested on: COLO 205 colon
HCT-15 colon = tested on: HCT-15 colon
HT29 colon = tested on: HT29 colon

## O=C1CCC2=C3C4CCCCC4C(=O)C4CCCC(OC2C1)C34 (configuration not stated)
HOP-62 NSCLC
  GI50: 2720 nM
  TGI: 32800 nM
SF-268 CNS
  GI50: 471 nM
  TGI: > 21800 nM
RXF 393 renal
  GI50: 605 nM
  TGI: 1790 nM
PC-3 prostate
  GI50: 2570 nM
  TGI: > 29600 nM
NCI-H522 lung
  GI50: 434 nM
  TGI: 1270 nM
SF-295 CNS
  GI50: 2490 nM
  TGI: 15500 nM
EKVX NSCLC
  GI50: 12600 nM
  TGI: > 100000 nM
MOLT-4 leukemia
  GI50: 457 nM
  TGI: 5660 nM
BT-549 breast
  GI50: 1400 nM
  TGI: 6030 nM
NCI-H226 lung
  GI50: > 41200 nM
  TGI: > 78900 nM
A549 NSCLC
  GI50: 2570 nM
  TGI: 13200 nM
HCC-2998 colon
  GI50: 3410 nM
  TGI: 15700 nM
NCI-H460 lung
  GI50: 870 nM
  TGI: 4570 nM
RPMI-8226 leukemia
  GI50: 398 nM
  TGI: 2650 nM
T-47D breast
  GI50: 3580 nM
  TGI: > 100000 nM
A498 renal
  GI50: 31800 nM
  TGI: > 63100 nM
UACC-257 melanoma
  GI50: 1650 nM
  TGI: 4930 nM
HCT-116 colon
  GI50: 316 nM
  TGI: > 31100 nM
SK-MEL-28 melanoma
  GI50: 4840 nM
  TGI: > 31400 nM
SR leukemia
  GI50: 307 nM
  TGI: 54800 nM
OVCAR-5 ovarian
  GI50: > 20600 nM
  TGI: > 100000 nM
MDA-MB-435
  GI50: 516 nM
  TGI: 2080 nM
ACHN renal
  GI50: 382 nM
MCF7 breast
  GI50: 1210 nM
  TGI: > 100000 nM
SN12C renal
  GI50: 849 nM
  TGI: > 24700 nM
DU-145 prostate
  GI50: 357 nM
  TGI: 2100 nM
COLO 205 colon
  GI50: 17700 nM
  TGI: > 72700 nM
HCT-15 colon
  GI50: 472 nM
  TGI: > 21700 nM
HT29 colon
  GI50: 8280 nM
  TGI: > 100000 nM
